In ChEMBL document CHEMBL3414499, “Characterization of two distinct structural classes of selective aldehyde dehydrogenase 1A1 inhibitors” (J Med Chem, 2015):
pIC50: −log10 of the molar value. Activity calls are given as the source filed them. No cut-off for these calls is given here.

Legend:
[1] = target: T1, Retinaldehyde dehydrogenase 3 (Homo sapiens) (UniProt P47895); assay: Inhibition of recombinant human ALDH1A3 using propionaldehyde as substrate at 100 uM preincubated for 2 mins with NAD+ followed by substrate addition by UV-Vis spectrophotometric analysis
T1 sequence (whole entry): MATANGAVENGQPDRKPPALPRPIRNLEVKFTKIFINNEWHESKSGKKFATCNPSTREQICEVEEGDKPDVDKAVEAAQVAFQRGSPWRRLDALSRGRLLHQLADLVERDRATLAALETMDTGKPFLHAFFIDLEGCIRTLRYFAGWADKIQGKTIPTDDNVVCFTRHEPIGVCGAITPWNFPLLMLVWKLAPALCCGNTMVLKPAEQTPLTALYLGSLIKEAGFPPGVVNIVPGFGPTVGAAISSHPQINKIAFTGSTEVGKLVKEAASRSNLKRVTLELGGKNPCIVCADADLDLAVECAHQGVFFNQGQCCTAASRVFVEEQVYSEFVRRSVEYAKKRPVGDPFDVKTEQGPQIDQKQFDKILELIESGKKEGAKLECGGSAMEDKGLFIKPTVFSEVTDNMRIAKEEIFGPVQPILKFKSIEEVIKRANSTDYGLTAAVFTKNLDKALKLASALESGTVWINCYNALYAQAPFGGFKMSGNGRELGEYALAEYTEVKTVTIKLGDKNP

[2] = target: T2, Aldehyde dehydrogenase X, mitochondrial (Homo sapiens) (UniProt P30837); assay: Inhibition of recombinant human ALDH1B1 using propionaldehyde as substrate at 100 uM preincubated for 2 mins with NAD+ followed by substrate addition by UV-Vis spectrophotometric analysis
T2 sequence (whole entry): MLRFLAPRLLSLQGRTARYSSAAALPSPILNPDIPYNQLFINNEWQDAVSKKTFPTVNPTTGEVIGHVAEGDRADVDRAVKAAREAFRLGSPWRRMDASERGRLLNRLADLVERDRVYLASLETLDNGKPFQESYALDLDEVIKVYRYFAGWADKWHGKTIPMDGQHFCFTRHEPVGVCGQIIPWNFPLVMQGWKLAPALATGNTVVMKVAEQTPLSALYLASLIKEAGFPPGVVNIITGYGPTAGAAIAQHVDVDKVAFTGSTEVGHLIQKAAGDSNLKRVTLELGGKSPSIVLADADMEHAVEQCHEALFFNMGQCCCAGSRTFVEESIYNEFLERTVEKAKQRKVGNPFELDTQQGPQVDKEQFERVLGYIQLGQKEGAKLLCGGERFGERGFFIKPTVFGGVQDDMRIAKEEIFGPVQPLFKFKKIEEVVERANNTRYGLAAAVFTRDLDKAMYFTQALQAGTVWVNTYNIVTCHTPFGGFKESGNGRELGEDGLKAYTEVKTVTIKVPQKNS

[3] = target: T3, Aldehyde dehydrogenase, mitochondrial (Homo sapiens) (UniProt P05091); assay: Inhibition of recombinant human ALDH2 using propionaldehyde as substrate at 100 uM preincubated for 2 mins with NAD+ followed by substrate addition by UV-Vis spectrophotometric analysis
T3 sequence (whole entry): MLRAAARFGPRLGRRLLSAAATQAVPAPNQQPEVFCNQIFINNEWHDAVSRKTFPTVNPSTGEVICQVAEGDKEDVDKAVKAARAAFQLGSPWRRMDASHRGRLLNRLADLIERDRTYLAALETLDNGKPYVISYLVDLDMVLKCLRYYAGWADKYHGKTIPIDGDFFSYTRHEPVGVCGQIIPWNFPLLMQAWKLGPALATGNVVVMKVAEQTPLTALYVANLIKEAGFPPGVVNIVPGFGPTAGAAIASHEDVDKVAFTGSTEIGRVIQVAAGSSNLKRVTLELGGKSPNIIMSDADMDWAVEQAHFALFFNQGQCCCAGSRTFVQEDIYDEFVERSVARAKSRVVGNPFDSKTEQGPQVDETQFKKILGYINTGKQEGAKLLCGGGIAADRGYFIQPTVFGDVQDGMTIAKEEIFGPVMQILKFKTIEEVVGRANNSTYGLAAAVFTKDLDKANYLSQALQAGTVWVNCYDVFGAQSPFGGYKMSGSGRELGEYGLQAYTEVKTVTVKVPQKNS

[4] = target: T4, Aldehyde dehydrogenase, dimeric NADP-preferring (Homo sapiens) (UniProt P30838); assay: Inhibition of recombinant human ALDH3A1 using benzaldehyde as substrate at 100 uM preincubated for 2 mins with NAD+ followed by substrate addition by UV-Vis spectrophotometric analysis
T4 sequence (whole entry): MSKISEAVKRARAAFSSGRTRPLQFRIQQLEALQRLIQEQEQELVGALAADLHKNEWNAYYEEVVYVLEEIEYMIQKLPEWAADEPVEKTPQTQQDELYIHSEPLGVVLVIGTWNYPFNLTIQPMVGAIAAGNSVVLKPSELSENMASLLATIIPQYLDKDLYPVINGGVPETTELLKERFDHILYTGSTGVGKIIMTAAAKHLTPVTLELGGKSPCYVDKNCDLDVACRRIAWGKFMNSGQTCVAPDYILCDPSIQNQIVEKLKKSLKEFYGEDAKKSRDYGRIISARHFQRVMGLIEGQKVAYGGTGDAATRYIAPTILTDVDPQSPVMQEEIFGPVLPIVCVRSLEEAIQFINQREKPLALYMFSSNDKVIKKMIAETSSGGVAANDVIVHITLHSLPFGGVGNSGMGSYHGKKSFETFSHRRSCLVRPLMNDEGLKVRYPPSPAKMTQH

[5] = target: T5, Retinal dehydrogenase 2 (Homo sapiens) (UniProt O94788); assay: Activation of recombinant human ALDH1A2 using propionaldehyde as substrate at 20 uM preincubated for 2 mins with NAD+ followed by substrate addition by UV-Vis spectrophotometric analysis
T5 sequence (whole entry): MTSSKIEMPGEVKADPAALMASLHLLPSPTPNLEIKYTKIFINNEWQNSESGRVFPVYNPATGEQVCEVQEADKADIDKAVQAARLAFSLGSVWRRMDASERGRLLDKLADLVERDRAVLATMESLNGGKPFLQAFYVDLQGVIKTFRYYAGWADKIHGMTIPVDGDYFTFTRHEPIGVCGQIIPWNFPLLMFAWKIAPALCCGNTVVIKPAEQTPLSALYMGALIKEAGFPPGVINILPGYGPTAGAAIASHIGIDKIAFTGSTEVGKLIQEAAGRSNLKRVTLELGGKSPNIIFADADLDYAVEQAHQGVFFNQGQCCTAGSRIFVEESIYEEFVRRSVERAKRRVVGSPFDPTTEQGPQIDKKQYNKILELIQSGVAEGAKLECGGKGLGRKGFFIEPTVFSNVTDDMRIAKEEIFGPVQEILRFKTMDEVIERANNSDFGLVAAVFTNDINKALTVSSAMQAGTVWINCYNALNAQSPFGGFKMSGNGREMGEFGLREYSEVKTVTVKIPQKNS

[6] = target: T1, Retinaldehyde dehydrogenase 3 (Homo sapiens); assay: Activation of recombinant human ALDH1A3 using propionaldehyde as substrate at 20 uM preincubated for 2 mins with NAD+ followed by substrate addition by UV-Vis spectrophotometric analysis
[7] = target: T4, Aldehyde dehydrogenase, dimeric NADP-preferring (Homo sapiens); assay: Activation of recombinant human ALDH3A1 using benzaldehyde as substrate at 20 uM preincubated for 2 mins with NAD+ followed by substrate addition by UV-Vis spectrophotometric analysis
[8] = target: T5, Retinal dehydrogenase 2 (Homo sapiens); assay: Activation of recombinant human ALDH1A2 using propionaldehyde as substrate at 100 uM preincubated for 2 mins with NAD+ followed by substrate addition by UV-Vis spectrophotometric analysis
[9] = target: T1, Retinaldehyde dehydrogenase 3 (Homo sapiens); assay: Activation of recombinant human ALDH1A3 using propionaldehyde as substrate at 100 uM preincubated for 2 mins with NAD+ followed by substrate addition by UV-Vis spectrophotometric analysis
[10] = target: T3, Aldehyde dehydrogenase, mitochondrial (Homo sapiens); assay: Activation of recombinant human ALDH2 using propionaldehyde as substrate at 20 uM preincubated for 2 mins with NAD+ followed by substrate addition by UV-Vis spectrophotometric analysis
[11] = target: T6, Retinaldehyde dehydrogenase 3 (Homo sapiens, UniProt P47895); assay: Inhibition of recombinant human ALDH1A3 using propionaldehyde as substrate preincubated for 2 mins with NAD+ followed by substrate addition by UV-Vis spectrophotometric analysis
T6 sequence (P47895 whole entry): T1 sequence (whole entry)

[12] = target: T7, Aldehyde dehydrogenase, mitochondrial (Homo sapiens, UniProt P05091); assay: Inhibition of recombinant human ALDH2 using propionaldehyde as substrate preincubated for 2 mins with NAD+ followed by substrate addition by UV-Vis spectrophotometric analysis
T7 sequence (P05091 whole entry): T3 sequence (whole entry)

[13] = target: T4, Aldehyde dehydrogenase, dimeric NADP-preferring (Homo sapiens); assay: Activation of recombinant human ALDH3A1 using benzaldehyde as substrate at 100 uM preincubated for 2 mins with NAD+ followed by substrate addition by UV-Vis spectrophotometric analysis
[14] = target: T8, Aldehyde dehydrogenase 1A1 (Homo sapiens) (UniProt P00352); assay: Effect on recombinant human ALDH1A1 using propionaldehyde as substrate up to 250 uM preincubated for 2 mins with NAD+ followed by substrate addition by UV-Vis spectrophotometric analysis
T8 sequence (whole entry): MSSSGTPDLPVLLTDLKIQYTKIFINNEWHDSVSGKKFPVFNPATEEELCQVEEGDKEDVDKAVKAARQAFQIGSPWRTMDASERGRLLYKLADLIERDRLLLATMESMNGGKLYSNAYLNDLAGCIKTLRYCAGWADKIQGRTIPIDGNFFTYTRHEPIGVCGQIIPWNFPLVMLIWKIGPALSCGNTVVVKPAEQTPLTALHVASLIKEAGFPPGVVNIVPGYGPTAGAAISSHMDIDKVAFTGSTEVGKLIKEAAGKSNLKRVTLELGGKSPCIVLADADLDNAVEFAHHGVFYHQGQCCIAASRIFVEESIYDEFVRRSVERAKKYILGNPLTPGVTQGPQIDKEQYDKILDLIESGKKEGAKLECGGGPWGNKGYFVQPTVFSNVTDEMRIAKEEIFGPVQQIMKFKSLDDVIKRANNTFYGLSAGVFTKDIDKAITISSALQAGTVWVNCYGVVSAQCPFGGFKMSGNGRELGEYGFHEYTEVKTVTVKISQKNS

[15] = target: T5, Retinal dehydrogenase 2 (Homo sapiens); assay: Inhibition of recombinant human ALDH1A2 using propionaldehyde as substrate at 100 uM preincubated for 2 mins with NAD+ followed by substrate addition by UV-Vis spectrophotometric analysis
[16] = target: T8, Aldehyde dehydrogenase 1A1 (Homo sapiens); assay: Inhibition of recombinant human ALDH1A1 using propionaldehyde as substrate at 100 uM preincubated for 2 mins with NAD+ followed by substrate addition by UV-Vis spectrophotometric analysis relative to control

Compound | inhibition [1] | inhibition [4] | Activity [6] | Activity [7] | Activity [9] | further results
Cn1c(=O)c2[nH]cnc2n(C)c1=O | inactive | inactive |  |  |  | inhibition [2]: inactive; inhibition [3]: inactive
Cc1cccc(Cn2c(CN3CCN(C(=O)c4ccco4)CC3)nc3c2c(=O)n(C)c(=O)n3C)c1 |  | inactive | < 10% | < 10% | Active | Activity [5]: < 10%; Activity [8]: Active
CCN1CCN(Cc2nc3c(c(=O)n(C)c(=O)n3C)n2CCC(C)C)CC1 | inactive | inactive | < 10% | < 10% |  | 
CC(C)CCn1c(CN2CCC(C)CC2)nc2c1c(=O)n(C)c(=O)n2C |  | inactive | < 10% | < 10% |  | Activity [10]: < 10%; pIC50 [11]: < 4.00; pIC50 [12]: < 4.00
Cc1ccc(Cn2c(CN3CCN(c4ccccc4)CC3)nc3c2c(=O)n(C)c(=O)n3C)cc1 |  |  | < 10% | < 10% | Active | Activity [13]: Active
Cn1c(=O)c2c(ncn2C)n(C)c1=O | inactive | inactive |  |  |  | Activity [14]: inactive; inhibition [15]: inactive; inhibition [2]: inactive; inhibition [16]: inactive; inhibition [3]: inactive
CCC1CCCCN1Cc1nc2c(c(=O)n(C)c(=O)n2C)n1Cc1cccc(C)c1 (centres undefined) |  | inactive | < 10% | < 10% | Active | 
CC(C)CCn1c(CN2CCC(C(N)=O)CC2)nc2c1c(=O)n(C)c(=O)n2C |  |  | < 10% | < 10% | Active | Activity [13]: Active
